Laboratory results published in patent publication US4992449A, “7-(substituted)cycloalkylamino-1 -(substituted)-6-fluoro-1,4-dihydro-4-oxo-3-quinolinecarboxylic acids” (American Cyanamid Company, priority 1990, dated 1991).
In brackets after ≈: the same amount, converted by molar mass.

How the values were obtained:
Test in all cases: In vitro antibacterial MIC, agar plate dilution
Type in all cases: cell-based
[1] = tested on: Klebsiella neumoniae IO 83-5; conditions: IO835, Mueller-Hinton agar, 10^4 CFU, 18 hours, 35° C.
Protocol: (§1) The in vitro antimicrobial spectrum of the compounds of this invention were determined by the agar plate dilution method with Mueller-Hinton agar and an inoculum of each test organism of approximately 10^4 colony forming units delivered by the Steers replicating device. The minimal inhibitory concentration (MIC) in mcg/ml is defined as the lowest concentration of test compound that inhibited visible growth after 18 hours incubation at 35° C. Results are given in Table I, with the test compounds identified by the number of their hereinafter described examples

[2] = tested on: Serratia marcescens MOR 84-41; conditions: MOR8441, Mueller-Hinton agar, 10^4 CFU, 18 hours, 35° C.
Protocol: as §1

[3] = tested on: Pseudomonas aeruginosa CMC 83-20; conditions: CMC8320, Mueller-Hinton agar, 10^4 CFU, 18 hours, 35° C.
Protocol: as §1

[4] = tested on: Moranella morganii VGH 84-12; conditions: Mueller-Hinton agar, 10^4 CFU, 18 hours, 35° C.
Protocol: as §1

[5] = tested on: Klebsiella neumoniae CMC 84-31; conditions: CMC8431, Mueller-Hinton agar, 10^4 CFU, 18 hours, 35° C.
Protocol: as §1

[6] = tested on: Staphylococcus aureus K 82-26; conditions: K8226, Mueller-Hinton agar, 10^4 CFU, 18 hours, 35° C.
Protocol: as §1

[7] = tested on: Staphylococcus aureus ATCC 29213; conditions: Staphylococcus aureus, ATCC29213, 18 h, Table I, Mueller-Hinton agar, 10^4 CFU, 18 hours, 35° C., read-out: MIC
Protocol: as §1

[8] = tested on: Escherichia coli VGH 84-19; conditions: VGH8419, Mueller-Hinton agar, 10^4 CFU, 18 hours, 35° C.
Protocol: as §1

[9] = tested on: Serratia marcescens CMC 83-74; conditions: CMC8374, Mueller-Hinton agar, 10^4 CFU, 18 hours, 35° C.
Protocol: as §1

[10] = tested on: Escherichia coli CMC 84-50; conditions: CMC8450, Mueller-Hinton agar, 10^4 CFU, 18 hours, 35° C.
Protocol: as §1

[11] = tested on: Pseudomonas aeruginosa VGH 84-3; conditions: VGH843, Mueller-Hinton agar, 10^4 CFU, 18 hours, 35° C.
Protocol: as §1

[12] = tested on: Klebsiella neumoniae MOR 84-24; conditions: MOR8424, Mueller-Hinton agar, 10^4 CFU, 18 hours, 35° C.
Protocol: as §1

[13] = tested on: Proteus rettgeri IO 83-21; conditions: Providencia rettgeri, IO8321, Mueller-Hinton agar, 10^4 CFU, 18 hours, 35° C.
Protocol: as §1

[14] = tested on: Enterobacter cloacae MOR 84-30; conditions: MOR8430, Mueller-Hinton agar, 10^4 CFU, 18 hours, 35° C.
Protocol: as §1

[15] = tested on: Serratia marcescens IO 83-63; conditions: IO8363, Mueller-Hinton agar, 10^4 CFU, 18 hours, 35° C.
Protocol: as §1

[16] = tested on: Staphylococcus aureus VGH 84-47; conditions: VGH8447, Mueller-Hinton agar, 10^4 CFU, 18 hours, 35° C.
Protocol: as §1

[17] = tested on: Providencia stuartii CMC 83-3; conditions: CMC833, Mueller-Hinton agar, 10^4 CFU, 18 hours, 35° C.
Protocol: as §1

[18] = tested on: Moranella morganii CMC 84-38; conditions: Mueller-Hinton agar, 10^4 CFU, 18 hours, 35° C.
Protocol: as §1

[19] = tested on: Morganella morganii MOR 84-45; conditions: MOR8445, Mueller-Hinton agar, 10^4 CFU, 18 hours, 35° C.
Protocol: as §1

[20] = tested on: Staphylococcus aureus CMC 83-131; conditions: CMC83131, Mueller-Hinton agar, 10^4 CFU, 18 hours, 35° C.
Protocol: as §1

[21] = tested on: Enterobacter cloacae VGH 84-39; conditions: VGH8439, Mueller-Hinton agar, 10^4 CFU, 18 hours, 35° C.
Protocol: as §1

[22] = tested on: Escherichia coli MOR 84-20; conditions: MOR8420, Mueller-Hinton agar, 10^4 CFU, 18 hours, 35° C.
Protocol: as §1

[23] = tested on: Streptococcus faecalis UCI 85-30; conditions: Enterococcus faecalis, UCI8530, Mueller-Hinton agar, 10^4 CFU, 18 hours, 35° C.
Protocol: as §1

[24] = tested on: Citrobacter diversus K 82-24; conditions: Citrobacter koseri, K8224, Mueller-Hinton agar, 10^4 CFU, 18 hours, 35° C.
Protocol: as §1

[25] = tested on: Staphylococcus faecalis CMC 83-120; conditions: CMC83120, Mueller-Hinton agar, 10^4 CFU, 18 hours, 35° C.
Protocol: as §1

[26] = tested on: Escherichia coli ATCC 25922; conditions: Escherichia coli, ATCC25922, 18 h, Table I; Escherichia coli ATCC 25922; Mueller-Hinton agar, 10^4 CFU, 18 hours, 35° C.; read-out: MIC
Protocol: as §1

[27] = tested on: Pseudomonas aeruginosa VGH 84-16; conditions: VGH8416, Mueller-Hinton agar, 10^4 CFU, 18 hours, 35° C.
Protocol: as §1

[28] = tested on: Staphylococcus faecalis VGH 84-69; conditions: VGH8469, Mueller-Hinton agar, 10^4 CFU, 18 hours, 35° C.
Protocol: as §1

[29] = tested on: Enterobacter cloacae K 84-10; conditions: K8410, Mueller-Hinton agar, 10^4 CFU, 18 hours, 35° C.
Protocol: as §1

N[C@H]1CCCC[C@H]1Nc1cc2c(cc1F)c(=O)c(C(=O)O)cn2C1CC1 (relative stereo) [Example 1, Cis-7-[(2-Aminocyclohexyl)amino]1-cyclopropyl-6-fluoro-1,4-dihydro-4-oxo-3-quinolinecarboxylic acid]
MIC [1]: 1 µg/mL (≈ 2.78 µM) | MIC [2]: 0.5 µg/mL (≈ 1.39 µM) | MIC [3]: 4 µg/mL (≈ 11.1 µM) | MIC [4]: 1 µg/mL (≈ 2.78 µM) | MIC [5]: 1 µg/mL (≈ 2.78 µM) | MIC [6]: 2 µg/mL (≈ 5.56 µM) | MIC [7]: 2 µg/mL (≈ 5.56 µM) | MIC [8]: 0.25 µg/mL (≈ 0.696 µM) | MIC [9]: 16 µg/mL (≈ 44.5 µM) | MIC [10]: 1 µg/mL (≈ 2.78 µM) | MIC [11]: > 16 µg/mL | MIC [12]: 1 µg/mL (≈ 2.78 µM) | MIC [13]: 2 µg/mL (≈ 5.56 µM) | MIC [14]: 1 µg/mL (≈ 2.78 µM) | MIC [15]: 1 µg/mL (≈ 2.78 µM) | MIC [16]: 2 µg/mL (≈ 5.56 µM) | MIC [17]: > 16 µg/mL | MIC [18]: 1 µg/mL (≈ 2.78 µM) | MIC [19]: 0.5 µg/mL (≈ 1.39 µM) | MIC [20]: 4 µg/mL (≈ 11.1 µM) | MIC [21]: 0.5 µg/mL (≈ 1.39 µM) | MIC [22]: 0.25 µg/mL (≈ 0.696 µM) | MIC [23]: 4 µg/mL (≈ 11.1 µM) | MIC [24]: 0.25 µg/mL (≈ 0.696 µM) | MIC [25]: 4 µg/mL (≈ 11.1 µM) | MIC [26]: 0.25 µg/mL (≈ 0.696 µM) | MIC [27]: 8 µg/mL (≈ 22.3 µM) | MIC [28]: 4 µg/mL (≈ 11.1 µM) | MIC [29]: 0.5 µg/mL (≈ 1.39 µM)

N[C@H]1CCC[C@H]1Nc1cc2c(cc1F)c(=O)c(C(=O)O)cn2C1CC1 (relative stereo) [Example 2, Cis-7-[(2-Aminocyclopentyl)amino]-1-cyclopropyl-6-fluoro-1,4-dihydro-4-oxo-3-quinolinecarboxylic acid]
MIC [1]: 2 µg/mL (≈ 5.79 µM) | MIC [2]: 1 µg/mL (≈ 2.9 µM) | MIC [3]: 8 µg/mL (≈ 23.2 µM) | MIC [4]: 4 µg/mL (≈ 11.6 µM) | MIC [5]: 2 µg/mL (≈ 5.79 µM) | MIC [6]: 4 µg/mL (≈ 11.6 µM) | MIC [7]: 4 µg/mL (≈ 11.6 µM) | MIC [8]: 1 µg/mL (≈ 2.9 µM) | MIC [9]: > 16 µg/mL | MIC [10]: 0.5 µg/mL (≈ 1.45 µM) | MIC [11]: > 16 µg/mL | MIC [12]: 1 µg/mL (≈ 2.9 µM) | MIC [13]: 4 µg/mL (≈ 11.6 µM) | MIC [14]: 2 µg/mL (≈ 5.79 µM) | MIC [15]: 2 µg/mL (≈ 5.79 µM) | MIC [16]: 4 µg/mL (≈ 11.6 µM) | MIC [17]: > 16 µg/mL | MIC [18]: 1 µg/mL (≈ 2.9 µM) | MIC [19]: 2 µg/mL (≈ 5.79 µM) | MIC [20]: > 16 µg/mL | MIC [21]: 1 µg/mL (≈ 2.9 µM) | MIC [22]: 0.5 µg/mL (≈ 1.45 µM) | MIC [23]: > 16 µg/mL | MIC [24]: 0.5 µg/mL (≈ 1.45 µM) | MIC [25]: > 16 µg/mL | MIC [26]: 0.5 µg/mL (≈ 1.45 µM) | MIC [27]: 16 µg/mL (≈ 46.3 µM) | MIC [28]: > 16 µg/mL | MIC [29]: 1 µg/mL (≈ 2.9 µM)
